Test results taken from ChEMBL document CHEMBL1201862, “PubChem BioAssay data set” (2004).
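Assay format: 96-well plates, 48-hour exposure. GI50 is the concentration that inhibits growth by half.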 The source made the active and inactive calls. Rule as the data show it: active = GI50 up to about 1.1 µM and inactive = higher.

Key:
Assay in all cases: inhibition of tumour cell growth, NCI panel, 48 h
[1] = tested on: A498
[2] = tested on: A549
[3] = tested on: BT-549
[4] = tested on: CCRF-CEM
[5] = tested on: DU-145
[6] = tested on: HOP-62
[7] = tested on: Hs-578T
[8] = tested on: IGROV-1
[9] = tested on: MDA-MB-231
[10] = tested on: MDA-MB-435
[11] = tested on: MDA-N
[12] = tested on: NCI-H522
[13] = tested on: NCI/ADR-RES
[14] = tested on: OVCAR-4
[15] = tested on: OVCAR-8
[16] = tested on: SF-268
[17] = tested on: SK-OV-3
[18] = tested on: SNB-19
[19] = tested on: UACC-257
[20] = tested on: UACC-62

Measured: GI50

CCOC(=O)c1nc2cc(F)c(N3CCOCC3)cc2[nH]c1=O
inactive: [1] > 100 µM | [2] > 100 µM | [3] > 100 µM | [4] 96.4 µM | [5] > 100 µM | [6] > 100 µM | [7] 56.1 µM | [8] 80.9 µM | [9] > 100 µM | [10] > 100 µM | [11] > 100 µM | [12] 76 µM | [13] > 100 µM | [14] > 100 µM | [15] > 100 µM | [16] > 100 µM | [17] > 100 µM | [18] > 100 µM | [19] > 100 µM | [20] > 100 µM

Cc1cc2c(cc1Cl)SC(NNc1cnc3ccccc3n1)=NS2(=O)=O
inactive: [1] 22.8 µM | [2] 78.9 µM | [3] > 100 µM | [4] 46.8 µM | [5] > 100 µM | [6] 41.7 µM | [7] 51.9 µM | [8] 41.8 µM | [9] 61 µM | [10] > 100 µM | [11] 90.2 µM | [12] > 100 µM | [13] > 100 µM | [14] 56.8 µM | [15] 68.5 µM | [16] 32.3 µM | [17] 44.2 µM | [18] 50.1 µM | [19] 72.8 µM | [20] 60.7 µM

O=C1CC(c2ccccc2)NCCCCN2CC(CN1)C(C(O)c1ccccc1)C2=O (stereo not given)
inactive: [1] > 100 µM | [2] > 100 µM | [3] > 100 µM | [4] > 100 µM | [5] > 100 µM | [6] > 100 µM | [7] > 100 µM | [8] > 100 µM | [9] > 100 µM | [10] > 100 µM | [11] > 100 µM | [12] > 100 µM | [13] > 100 µM | [14] > 100 µM | [15] > 100 µM | [16] > 100 µM | [17] > 100 µM | [18] > 100 µM | [19] > 100 µM | [20] > 100 µM

O=C1OC(C2Cc3cc4c(cc3C2=O)CCC4)c2ccccc21 (stereo not given)
inactive: [1] 25.9 µM | [2] 44.7 µM | [3] > 10 µM | [4] 25.6 µM | [5] 93.1 µM | [6] 65 µM | [7] 22.5 µM | [8] 45.5 µM | [9] 36.6 µM | [10] 40.3 µM | [11] 75.3 µM | [12] 50.4 µM | [13] 63.4 µM | [14] 78.3 µM | [15] 67.1 µM | [16] 45.7 µM | [17] 21.7 µM | [18] 32.1 µM | [19] > 100 µM | [20] 20.7 µM

COc1ccc(C(O)CNC(=O)c2ccccc2)cc1 (stereo not given)
inactive: [1] > 100 µM | [2] > 100 µM | [3] > 100 µM | [4] > 100 µM | [5] > 100 µM | [6] > 100 µM | [7] > 100 µM | [8] > 100 µM | [9] > 100 µM | [10] > 100 µM | [11] > 100 µM | [12] > 100 µM | [13] > 100 µM | [14] > 100 µM | [15] > 100 µM | [16] > 100 µM | [17] > 100 µM | [18] > 100 µM | [19] > 100 µM | [20] > 100 µM

CSc1ccc(/C=C2\N=C(c3ccccc3)N(c3nc4ccc(Sc5ccccc5)cc4[nH]3)C2=O)cc1
inactive: [1] 18.2 µM | [2] 35.5 µM | [3] 18.3 µM | [4] 27.4 µM | [5] 27.6 µM | [6] 17.2 µM | [7] 18.6 µM | [8] 36.5 µM | [9] 18.3 µM | [10] 5.28 µM | [11] 3.37 µM | [12] 15.9 µM | [13] 19.4 µM | [14] 30.9 µM | [15] 28.2 µM | [16] 27.6 µM | [17] 14.7 µM | [18] 24.9 µM | [19] 13.9 µM | [20] 14.2 µM
